A short description of data set [1]: LogP determination by HPLC (EEC-Directive 79/831 Annex V. A8). Conditions: HPLC with acetonitrile/0.1% aqueous phosphoric acid gradient, gradient method. Format: physicochemical.
For another data set, the system named is Venturia inaequalis. Put plainly: Venturia test (apple)/protective. Format: in vivo. Conditions: protective spray, assessment 10 days after inoculation, 0% = control, 100% = no attack. An excerpt:
Venturia Test (apple)/protective • Solvent: 24.5 parts by weight of acetone • 24.5 parts by weight of dimethylacetamide • Emulsifier: 1 part by weight of alkyl-aryl-polyglycolether One part by weight of active substance is mixed with the specified quantities of solvent and emulsifier and the concentrate diluted with water to the desired concentration to prepare a suitable active substance preparation. To test the protective efficiency, young plants are sprayed with the active substance preparation in the specified amount. After drying the spray coating, the plants are inoculated with an aqueous conodia suspension of the apple scab pathogen Venturia inaequalis and are then left for 1 day at about 20° C. and 100% relative humidity in an incubation cabinet. The plants are then placed in a greenhouse at about 21° C. and a relative humidity of about 90%. The assessment is made 10 days after the inoculation. In this situation 0% means an efficiency corresponding to that of the control whereas an efficiency of 100% means that no attack is observed.

These results are taken from patent US20060281767A1, “Triazoloypyrimidines” (BAYER CROPSCIENCE AKTIENGESELLSCHAFT, priority 2003, published 2006).

Each structure is given as a SMILES string.

Consider `CC(Oc1c(-c2ncncc2Cl)c(Cl)nc2ncnn12)C(F)(F)F` (stereo not drawn) [Example 1, 5-chloro-6-(5-chloro-pyrimidin4-yl)-7-(2,2,2-trifluoro-isopropoxy)[1,2,4]triazolo[1,5-a]pyrimidine], for which the chromatographic logP in data set [1] turned out to be 2.43.
In the data set on Venturia inaequalis, `CC(C)C(C)Sc1c(-c2ncncc2Cl)c(Cl)nc2ncnn12` (stereo not drawn) [Example 2] yielded an efficiency of over 90%. In data set [1], this molecule came in with a chromatographic logP of 3.07.
In turn, `FC(F)(F)c1cccnc1-c1c(Cl)nc2ncnn2c1Cl` [Example 5, 5,7-dichloro-6-(3-trifluoromethyl-pyridin-2-yl)-[1,2,4]triazolo[1,5-a]pyrimidine] yielded a chromatographic logP in data set [1] of 1.97.
The same measure, in the same setting: under `Clc1cncnc1-c1c(Cl)nc2ncnn2c1Cl` [Example 6, 5,7-dichloro-6-(5-chloro-4-pyrimidinyl)[1,2,4]triazolo[1,5-a]pyrimidine] stands 1.43.
Same read-out and setting: to `Clc1ncsc1-c1c(Cl)nc2nc(C3CC3)nn2c1Cl` [Example 9, 5,7-dichloro-2-cyclopropyl-6-(4-chloro-thiazol-5-yl)-[1,2,4]-triazolo[1,5-a]pyrimidine] belongs 2.46; to `Oc1nc2ncnn2c(O)c1-c1ncccc1C(F)(F)F` [Example 10, 6-(3-trifluoromethyl-pyridin-2-yl)-[1,2,4]triazolo[1,5-a]pyrimidin-5,7-diole], -0.23; to `Oc1nc2ncnn2c(O)c1-c1ncncc1Cl` [Example 11, 6-(5-chloro-4-pyrimidinyl)[1,2,4]triazolo[1,5-a]pyrimidin-5,7-diole], -0.23.
As to `Oc1nc2nc(C3CC3)nn2c(O)c1-c1scnc1Cl` [Example 12, 2-cyclopropyl-6-(4-chloro-thiazol-5-yl)-[1,2,4]triazolo[1,5-a]pyrimidin-5,7-diol], in data set [1], the chromatographic logP was 0.1.
The same measure, in the same setting: under `COC(=O)C(C(=O)OC)c1ncccc1C(F)(F)F` [Example 13, 2-[(3-trifluoromethyl)-pyridin-2-yl]-malonic acid dimethylester] stands 2.05.
On the same count and under the same terms, under `COC(=O)C(C(=O)OC)c1ncncc1Cl` [Example 14, 2-(5-chloro-pyrimidin-4-yl)-malonic acid dimethylester] stands 1.33; under `Clc1cncnc1Cl` [Example 15, 4,5-dichloropyrimidine], 1.35.
